Results on 27 compounds are retold here after patent US10376480B2, “Biguanide derivative, a preparation method thereof, and a pharmaceutical composition containing the biguanide derivative as an active ingredient” (Immunomet Therapeutics Inc., priority 2010, dated 2019).

For one data set, the system named is HCT116 cells. As to the kind of experiment: Inhibition of cancer cell proliferation (MTT, GIC50). The format is cell-based. The following applies: Homo sapiens, HCT-116, 48 hours incubation. On the procedure:
HCT116 cells derived from human colorectal cancer were used, and an effect of a biguanide derivative on the inhibition of cancer cell proliferation was confirmed by measuring a concentration value (cell growth inhibition concentration, GIC50) at which 50% of the cell growth was inhibited using a 3-(4,5-dimethylthiazol-2-yl)-2,5-diphenytetrazolium bromide (MTT) reagent.
First, HCT116 cells were put on a 96-well plate and cultured in a DMEM medium containing 10% bovine serum for 24 hours to each have cell count of approximately 5000. Subsequently, to obtain the GIC50 value of each compound, 100 μM (or 200 μM), 25 μM, 6.25 μM, 1.56 μM or 0.39 μM of the compound was treated to each culture medium and then incubated for 48 hours. To confirm living cells after treatment with the compound, MTT was added to each culture medium and further incubated for 3 hours. Generated formazane crystal was dissolved using dimethyl sulfoxide (DMSO) and absorbance of the solution was measured at 560 nm. After the 48-hour incubation, a ratio of a cell count cultured on a well plate not treated with the compound to a cell count on a well plate treated with compounds synthesized in the examples was indicated as cell viability (%) according to each administered concentration. A cell viability curve was plotted using the cell viability (%), and the calculated concentration value (GIC50) of the compound, at which 50% of the growth was inhibited was, to confirm an effect on the inhibition of cancer cell proliferation.

Data set [1] deals with 5′-AMP-activated protein kinase (AMPK). As to the kind of experiment: AMPK activation (AMPKα Thr172 phosphorylation immunoassay) in MCF7 cells. It is filed as cell-based, human. The settings on record: for AMPK Activation (phosphorylated AMPKα Thr172) / fold induction at 50 µM: MCF7 cells; for AMPK Activation (phosphorylated AMPKα Thr172): 24 hours; for fold induction at 50 µM: 24 h, 50 μM vs. 0 (cells without compound). Here is the method: MCF7 cells derived from human breast cancer cells were used, and an effect of a biguanide derivative on 5′-AMP-activated protein kinase (AMPK) activation was confirmed using an AMPKα immunoassay kit (Invitrogen, catalog No. KHO0651).
The MCF7 cells were put on a 6-well plate and incubated in a DMEM medium containing 10% fetal bovine serum in an incubator to which 5% CO2 was supplied to have a cell count of approximately 5×10^5. 50 μM of derivatives synthesized in the examples were treated to the each culture medium, and the cells were incubated for 24 hours. Subsequently, the cells were lysed by a method presented in the operation manual of the AMPKα immunoassay kit, and 20 μg of cell lysates were yielded through protein assay. A degree of phosphorylation of an AMPKα threonine 172nd residue (Thr172) from the cell lysates were confirmed according to a method presented in the operation manual of the AMPKα immunoassay kit to thereby obtain results.
In addition, an experiment was performed in the same manner as described in Experimental Example 2 using metformin as a control group, and the results of an effect on AMPK activation were compared to the effect on AMPK activation when 1 mM metformin was treated.

The structures appear in SMILES notation. pIC50: −log10 of the molar value. Structures can show the parent of a compound that is named as a salt. Bounds are passed on as bounds.

The pIC50 is the IC50 on a negative log10 scale, so that one unit is a factor of ten. The low end stands for a large IC50, the high end for a small IC50. In the data set on HCT116 cells, `CCCCCCNC(=N)NC(=N)NCC1CCCCC1.Cl` [Example 3, N1-hexyl-N5-cyclohexylmethyl Biguanide Hydrochloride] showed a pIC50 of under 4.00. Moreover, the “AMPK Activation (phosphorylated AMPKα Thr172)” value (shortened to “AMPK Activation”) in data set [1] (50 μM compound) is reported as 13.1. For the same compound, the fold induction at 50 µM in data set [1] (Homo sapiens) worked out at 1.9.
By melting point is commonly meant the temperature, or range, at which the solid turns liquid. Consider `Cl.N=C(NCCc1ccccc1)NC(=N)NC1CCCCCC1` [Example 15, N1-(phenethyl)-N5-cycloheptyl Biguanide Hydrochloride], for which the melting point was in the range of 135 to 137 °C. The pIC50 in the data set with HCT116 cells was 4.76. Also, in data set [1] (50 μM compound), the “AMPK Activation” value is on record as 7.0. The fold induction at 50 µM in data set [1] (Homo sapiens) is 1.5.
In the same order, the values of `CCCN(CCC)C(=N)NC(=N)N(CC)CC.Cl` [Example 37, N1,N1-dipropyl-N5,N5-diethyl Biguanide Hydrochloride] are 151 to 152 °C, under 4.00, 33.3 and 6.3.
The matching figures for `CN(C)C(=N)NC(=N)NC1CCCCCC1.Cl` [Example 23, N1,N1-dimethyl-N5-cycloheptyl Biguanide Hydrochloride]: 132 to 133 °C, under 3.70, 5.4 and 1.
The matching figures for `CCCN(CCC)C(=N)NC(=N)N(c1ccccc1)c1ccc(O)cc1.Cl` [Example 39, N1,N1-dipropyl-N5,N5-(4-hydroxylphenyl)(phenyl) Biguanide Hydrochloride]: 189 to 190 °C, under 4.00, 28.8 and 4.2.
`CNC(=N)NC(=N)N(C)C.Cl` [Example 17, N1,N1,N5-trimethyl Biguanide Hydrochloride] yielded a melting point of 175 to 177 °C. Moreover, the pIC50 with HCT116 cells is under 3.70. The “AMPK Activation” value in data set [1] (50 μM compound) was determined as 5.5. In data set [1] (Homo sapiens), the fold induction at 50 µM is 1.1.
As for `Cl.N=C(NCc1ccccc1)NC(=N)NCc1cccnc1` [Example 12, N1-benzyl-N5-(pyridine-3-yl)methyl Biguanide Hydrochloride], the melting point lay in the range of 138 to 140 °C. Further, in the data set on HCT116 cells, the negative-log IC50 (pIC50) is under 3.70. For the same compound, in data set [1] (50 μM compound), the “AMPK Activation” value was 7.8. Besides, in data set [1] (Homo sapiens), the fold induction at 50 µM amounted to 1.5.
The matching figures for `CCCN(CCC)C(=N)NC(=N)Nc1cccc2cnccc12.Cl` [Example 33, N1,N1-dipropyl-N5-(isoquinoline-5-yl) Biguanide Hydrochloride]: 191 to 192 °C, under 4.00, 11.3 and 1.7.
`COc1ccc(NC(=N)NC(=N)Nc2ccc(Cl)cc2)cc1` [Example 7, N1-(4-chloro)phenyl-N5-(4-methoxy)phenyl Biguanide Hydrochloride] had a pIC50 in the data set on HCT116 cells of 4.74.
`COC(=O)CCNC(=N)NC(=N)N(C)C.Cl` [Example 22, N1,N1-dimethyl-N5-(methoxycarbonylethyl)biguanide Hydrochloride] displayed a melting point of 100 to 102 °C. The same compound showed a pIC50 in the data set with HCT116 cells of under 3.70. In addition, the “AMPK Activation” value in data set [1] (50 μM compound) is on record as 3.2. Moreover, the fold induction at 50 µM in data set [1] (Homo sapiens) was found to be 0.6.
Compound `CCCCCNC(=N)NC(=N)N(C)C.Cl` [Example 21, N1,N1-dimethyl-N5-pentyl Biguanide Hydrochloride] came in with a melting point of 131 to 133 °C. The pIC50 in the data set with HCT116 cells was under 3.70. In addition, the “AMPK Activation” value in data set [1] (50 μM compound) was found to be 5.6. The fold induction at 50 µM in data set [1] (Homo sapiens) was found to be 1.1.
Compound `Cl.N=C(NC(=N)Nc1cc(Cl)cc(Cl)c1)Nc1cc(Cl)cc(Cl)c1` [Example 10, N1,N5-bis(3,5-dichlorophenyl) Biguanide Hydrochloride] displayed a melting point of 250 to 251 °C. For the same compound, the pIC50 in the data set with HCT116 cells is 5.20.
In turn, `CCC(C)NC(=N)NC(=N)N(C)C.Cl` (centres unmarked) [Example 19, N1,N1-dimethyl-N5-(butane-2-yl) Biguanide Hydrochloride] yielded a melting point of 110 to 112 °C. Moreover, the pIC50 in the data set with HCT116 cells is under 3.70. In addition, the “AMPK Activation” value in data set [1] (50 μM compound) stood at 3.6. Besides, the fold induction at 50 µM in data set [1] (Homo sapiens) worked out at 0.7.
Compound `Cl.N=C(NC(=N)Nc1ccc(Cl)c(Cl)c1)Nc1ccc(Cl)c(Cl)c1` [Example 9, N1,N5-bis(3,4-dichlorophenyl) Biguanide Hydrochloride] came in with a melting point of 255 to 257 °C. The negative logarithm of the IC50 (pIC50) in the data set with HCT116 cells is 5.23.
Compound `Cl.N=C(NC(=N)Nc1ccc(Cl)cc1)Nc1ccc(Cl)cc1` [Example 5, N1,N5-bis(4-chlorophenyl) Biguanide Hydrochloride] had a melting point of 263 to 264 °C. For the same compound, in the data set with HCT116 cells, the pIC50 was 5.49.
In turn, `CCN(CC)C(=N)NC(=N)N(C)C1CCCCC1.Cl` [Example 36, N1,N1-diethyl-N5,N5-(cyclohexyl)(methyl) Biguanide Hydrochloride] had a melting point of 115 to 117 °C. The same compound showed a pIC50 in the data set with HCT116 cells of under 3.70. Besides, the “AMPK Activation” value in data set [1] (50 μM compound) is listed as 4.5. For the same compound, the fold induction at 50 µM in data set [1] (Homo sapiens) turned out to be 0.8.
The matching figures for `CN(Cc1ccccc1)C(=N)NC(=N)N(C)Cc1ccccc1.Cl` [Example 40, N1,N1,N5,N5-bis((benzyl)(methyl)) Biguanide Hydrochloride]: 141 to 142 °C, under 4.00, 11.3 and 1.7.
Regarding `CN(C)C(=N)NC(=N)NCCc1ccccc1.Cl` [Example 29, N1,N1-dimethyl-N5-(phenethyl) Biguanide Hydrochloride], the melting point fell in the range of 155 to 157 °C. This compound also gave a pIC50 with HCT116 cells of under 3.70. Also, the “AMPK Activation” value in data set [1] (50 μM compound) stood at 14.7. Besides, the fold induction at 50 µM in data set [1] (Homo sapiens) is 2.8.
Consider `COc1ccc(NC(=N)NC(=N)Nc2ccc(OC)c(Cl)c2)cc1Cl.Cl` [Example 8, N1,N5-bis(3-chloro-4-methoxyphenyl) Biguanide Hydrochloride], for which the melting point was in the range of 203 to 204 °C. In addition, in the data set on HCT116 cells, the pIC50 is 4.77.
Regarding `CN(C)C(=N)NC(=N)NC(C)(C)C.Cl` [Example 20, N1,N1-dimethyl-N5-t-butyl Biguanide Hydrochloride], the melting point was in the range of 186 to 187 °C. The compound further had a negative logarithm of the IC50 (pIC50) in the data set with HCT116 cells of under 3.70. In addition, in data set [1] (50 μM compound), the “AMPK Activation” value came to 4.6. Moreover, in data set [1] (Homo sapiens), the fold induction at 50 µM stood at 0.9.
Take `CN(C)C(=N)N=C(N)N` [Metformin HCl, reference compound]: the pIC50 in the data set on HCT116 cells is 2.66. Besides, the “AMPK Activation” value in data set [1] (1 mM metformin) is 21.5 (@ 1 mM). In data set [1] (Homo sapiens, MCF7, 24 h, read-out: AMPK Activation fold), the fold induction at 1000 µM is 3.2.
In turn, `CCN(CC)C(=N)NC(=N)N(CC)CC.Cl` [Example 35, N1,N1,N5,N5-tetraethyl Biguanide Hydrochloride] gave a melting point of 140 to 141 °C. In the data set with HCT116 cells, this compound showed a pIC50 of under 3.70. Also, the “AMPK Activation” value in data set [1] (50 μM compound) is recorded as 3.8. Besides, the fold induction at 50 µM in data set [1] (Homo sapiens) came out at 0.7.
Take `CCCCCCN(CCCCCC)C(=N)NC(=N)Nc1cccc(Cl)c1` [Example 34, N1,N1-dihexyl-N5-(3-chloro)phenyl Biguanide Hydrochloride]: the negative-log IC50 (pIC50) with HCT116 cells was 5.11.
As to `CCCCCCNC(=N)NC(=N)NCc1ccccc1.Cl` [Example 4, N1-hexyl-N5-benzyl Biguanide Hydrochloride], in the data set on HCT116 cells, the pIC50 was 5.08. Besides, the “AMPK Activation” value in data set [1] (50 μM compound) is given as 15.5. Also, in data set [1] (Homo sapiens), the fold induction at 50 µM was 6.2.
For the compound `Cl.N=C(NC(=N)Nc1ccc(Br)cc1)Nc1ccc(Br)cc1` [Example 11, N1,N5-bis(4-bromophenyl) Biguanide Hydrochloride], the melting point was in the range of 242 to 243 °C. In the data set on HCT116 cells, the negative logarithm of the IC50 (pIC50) is 5.51.
On to `CCCN(CCC)C(=N)NC(=N)Nc1cccc(Cl)c1.Cl` [Example 31, N1,N1-dipropyl-N5-(3-chloro)phenyl Biguanide Hydrochloride], for which the melting point lay in the range of 201 to 202 °C. In the data set on HCT116 cells, this compound had a pIC50 of 5.12.
Consider `CCCCCCNC(=N)NC(=N)NCCC.Cl` [Example 1, N1-hexyl-N5-propyl Biguanide Hydrochloride], for which the negative-log IC50 (pIC50) in the data set with HCT116 cells was 4.62. The “AMPK Activation” value in data set [1] (50 μM compound) is 35.6. Moreover, the fold induction at 50 µM in data set [1] (Homo sapiens) turned out to be 6.7.
